Test results published in patent US6610733B2, “Optically active chroman and thiochroman derivatives” (Chugai Seiyaku Kabushiki Kaisha, priority 1999, dated 2003).

System: estradiol-induced increase in uterine weight
Assay: Anti-estrogenic activity (oral administration): inhibition of estradiol-induced increase in uterine weight in ovariectomized mice
Format: in vivo, mice (ICR)
Details: ovariectomized mice given 17β-estradiol-benzoate 0.1 μg/mouse s.c. for 3 days, test compound 10 mg/kg p.o., once a day, uterine weight 24 hours after last administration
Protocol: Test compounds were assayed for their oral anti-estrogenic activity in the following manner. In this experiment, the compounds prepared in Examples 2 and 3 were used as test compounds and the corresponding racemic mixture (10-[(3RS,4RS)-7-hydroxy-3-(4-hydroxyphenyl)-3-methylthiochroman-4-yl]-2-(4,4,5,5,5-pentafluoropentyl)decanoic acid was used as a control compound. This control compound was synthesized according to Reaction Schemes 1 to 7 mentioned above.
In this experiment, each of the test and control compounds was suspended in 5% arabic gum solution and orally administered for 3 days on a once-a-day basis. After 24 hours from the last administration, the test animals were sacrificed and the uteri were removed and weighed.

| Compound | Inhibition (%) | Inhibition (%) (10 mg/kg) |
| --- | --- | --- |
| C[C@@]1(c2ccc(O)cc2)CSc2cc(O)ccc2[C@@H]1CCCCCCCCC(CCCC(F)(F)C(F)(F)F)C(=O)O (mixture of isomers) [10-[(3RS,4RS)-7-hydroxy-3-(4-hydroxyphenyl)-3-methylthiochroman-4-yl]-2-(4,4,5,5,5-pentafluoropentyl)decanoic acid, reference compound] | 75 |  |
| C[C@@]1(c2ccc(O)cc2)CSc2cc(O)ccc2[C@@H]1CCCCCCCCC(CCCC(F)(F)C(F)(F)F)C(=O)O (single isomer, unassigned) [Example 10, Peak 1] |  | 87 |
| C[C@@]1(c2ccc(O)cc2)CSc2cc(O)ccc2[C@@H]1CCCCCCCCC(CCCC(F)(F)C(F)(F)F)C(=O)O (single isomer, unassigned) [Example 10, Peak 2] |  | 78 |
| C[C@@]1(c2ccc(O)cc2)CSc2cc(O)ccc2[C@@H]1CCCCCCCCC(CCCC(F)(F)C(F)(F)F)C(=O)O (stereo partly drawn) [Example 2, 10-[(3R,4R)-7-Hydroxy-3-(4-hydroxyphenyl)-3-methylthiochroman-4-yl]-2-(4,4,5,5,5-pentafluoropentyl)decanoic Acid] | 90 |  |
| C[C@]1(c2ccc(O)cc2)CSc2cc(O)ccc2[C@H]1CCCCCCCCC(CCCC(F)(F)C(F)(F)F)C(=O)O (stereo partly drawn) [Example 3, 10-[(3S,4S)-7-Hydroxy-3-(4-hydroxyphenyl)-3-methylthiochroman-4-yl]-2-(4,4,5,5,5-pentafluoropentyl)decanoic Acid] | 69 |  |
